# According to ChEMBL document CHEMBL1140672, “Design, synthesis, and evaluation of isoindolinone-hydroxamic acid derivatives as histone deacetylase (HDAC) inhibitors” (Bioorg Med Chem Lett, 2007):
# pIC50: −log10 of the molar value. Calls of active or inactive are those of the source. The rule behind the calls is not given here.
# Experiments:
# [1] = system: PANC-1; assay: Increase in p27kip1 gene expression in PANC1 cells after 24 hrs relative to control; format: functional, cell-based; settings: Homo sapiens
# [2] = system: PANC-1; assay: Increase in p21WAF1/CIP1 gene expression in PANC1 cells at 0.1 uM after 48 hrs relative to control; format: functional, cell-based; settings: Homo sapiens
# [3] = target: T1, Protein deacetylase HDAC6 (Homo sapiens, UniProt Q9UBN7); assay: Inhibition of human HDAC6
# T1 sequence (Q9UBN7 whole entry): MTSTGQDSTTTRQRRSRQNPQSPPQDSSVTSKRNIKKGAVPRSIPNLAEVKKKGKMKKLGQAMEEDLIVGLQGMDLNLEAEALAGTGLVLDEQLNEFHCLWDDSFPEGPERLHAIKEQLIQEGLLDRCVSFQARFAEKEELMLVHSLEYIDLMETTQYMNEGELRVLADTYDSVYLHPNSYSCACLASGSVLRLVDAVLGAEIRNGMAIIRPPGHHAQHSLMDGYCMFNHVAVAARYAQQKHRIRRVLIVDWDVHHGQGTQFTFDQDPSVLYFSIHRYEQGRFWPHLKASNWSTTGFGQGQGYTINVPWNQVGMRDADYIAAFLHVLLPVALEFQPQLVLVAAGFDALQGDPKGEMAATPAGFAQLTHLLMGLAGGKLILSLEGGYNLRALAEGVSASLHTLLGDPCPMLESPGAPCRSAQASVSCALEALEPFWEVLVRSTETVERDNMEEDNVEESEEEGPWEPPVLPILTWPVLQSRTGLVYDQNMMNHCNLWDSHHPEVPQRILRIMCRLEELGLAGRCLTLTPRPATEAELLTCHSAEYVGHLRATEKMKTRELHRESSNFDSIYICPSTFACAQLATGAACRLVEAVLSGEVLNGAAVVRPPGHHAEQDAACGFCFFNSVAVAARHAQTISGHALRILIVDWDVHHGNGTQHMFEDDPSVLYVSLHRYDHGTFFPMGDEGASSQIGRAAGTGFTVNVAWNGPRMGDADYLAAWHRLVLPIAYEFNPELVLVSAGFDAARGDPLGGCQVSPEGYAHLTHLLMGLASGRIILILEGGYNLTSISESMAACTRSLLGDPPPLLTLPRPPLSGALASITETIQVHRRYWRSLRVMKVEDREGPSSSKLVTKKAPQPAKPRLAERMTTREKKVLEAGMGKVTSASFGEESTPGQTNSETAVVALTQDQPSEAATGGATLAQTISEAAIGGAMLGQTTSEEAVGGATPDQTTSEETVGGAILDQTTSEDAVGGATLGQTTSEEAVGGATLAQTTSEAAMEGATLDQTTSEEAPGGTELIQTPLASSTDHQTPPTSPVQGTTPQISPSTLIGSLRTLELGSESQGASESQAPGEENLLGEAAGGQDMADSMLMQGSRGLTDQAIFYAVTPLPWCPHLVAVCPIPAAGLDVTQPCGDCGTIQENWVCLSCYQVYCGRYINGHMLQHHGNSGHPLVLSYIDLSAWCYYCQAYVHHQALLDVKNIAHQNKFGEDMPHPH
# [4] = system: PANC-1; assay: Increase in p27kip1 gene expression in PANC1 cells after 48 hrs relative to control; format: functional, cell-based; settings: Homo sapiens
# [5] = system: PANC-1; assay: Increase in p21WAF1/CIP1 gene expression in PANC1 cells 1 uM after 48 hrs relative to control; format: functional, cell-based; settings: Homo sapiens
# [6] = system: PT-45; assay: Antiproliferative activity against human drug-resistant PT45 cells; format: functional, cell-based
# [7] = system: PANC-1; assay: Antiproliferative activity against human PANC1 cells; format: functional, cell-based
# [8] = target: Histone deacetylase 4 (Homo sapiens, UniProt P56524); assay: Inhibition of human HDAC4
# [9] = target: Histone deacetylase 1 (Homo sapiens, UniProt Q13547); assay: Inhibition of human HDAC1
# [10] = system: PANC-1; assay: Increase in p21WAF1/CIP1 gene expression in PANC1 cells after 24 hrs relative to control; format: functional, cell-based; settings: Homo sapiens
# Chain of Histone deacetylase 4 (P56524 whole entry): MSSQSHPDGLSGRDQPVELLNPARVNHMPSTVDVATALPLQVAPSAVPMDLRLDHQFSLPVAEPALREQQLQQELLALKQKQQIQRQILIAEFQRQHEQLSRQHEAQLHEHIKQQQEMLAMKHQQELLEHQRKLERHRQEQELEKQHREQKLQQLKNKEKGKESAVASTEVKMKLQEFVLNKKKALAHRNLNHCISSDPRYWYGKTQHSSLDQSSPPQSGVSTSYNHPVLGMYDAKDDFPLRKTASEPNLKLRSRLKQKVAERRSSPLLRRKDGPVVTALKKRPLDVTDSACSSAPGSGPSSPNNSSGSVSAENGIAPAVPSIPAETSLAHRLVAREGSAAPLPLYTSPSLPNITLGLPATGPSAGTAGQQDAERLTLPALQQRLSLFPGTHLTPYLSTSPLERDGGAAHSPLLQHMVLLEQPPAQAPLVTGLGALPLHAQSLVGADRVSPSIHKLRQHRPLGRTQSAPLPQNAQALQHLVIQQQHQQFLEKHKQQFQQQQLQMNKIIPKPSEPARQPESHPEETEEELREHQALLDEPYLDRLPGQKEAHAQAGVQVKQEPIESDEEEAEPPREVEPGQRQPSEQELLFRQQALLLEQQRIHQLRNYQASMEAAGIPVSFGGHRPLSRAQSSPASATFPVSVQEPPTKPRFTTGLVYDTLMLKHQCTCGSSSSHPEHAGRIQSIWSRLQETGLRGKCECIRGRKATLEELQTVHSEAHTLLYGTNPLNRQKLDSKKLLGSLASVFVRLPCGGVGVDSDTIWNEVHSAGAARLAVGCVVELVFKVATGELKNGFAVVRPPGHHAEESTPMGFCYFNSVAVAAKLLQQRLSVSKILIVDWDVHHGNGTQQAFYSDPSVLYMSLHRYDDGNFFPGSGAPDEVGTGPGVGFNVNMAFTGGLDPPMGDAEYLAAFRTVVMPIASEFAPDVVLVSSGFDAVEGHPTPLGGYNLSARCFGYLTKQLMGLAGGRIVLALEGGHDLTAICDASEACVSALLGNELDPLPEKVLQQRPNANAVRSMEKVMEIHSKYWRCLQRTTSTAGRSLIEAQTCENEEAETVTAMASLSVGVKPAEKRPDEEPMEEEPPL
# Chain of Histone deacetylase 1 (Q13547 whole entry): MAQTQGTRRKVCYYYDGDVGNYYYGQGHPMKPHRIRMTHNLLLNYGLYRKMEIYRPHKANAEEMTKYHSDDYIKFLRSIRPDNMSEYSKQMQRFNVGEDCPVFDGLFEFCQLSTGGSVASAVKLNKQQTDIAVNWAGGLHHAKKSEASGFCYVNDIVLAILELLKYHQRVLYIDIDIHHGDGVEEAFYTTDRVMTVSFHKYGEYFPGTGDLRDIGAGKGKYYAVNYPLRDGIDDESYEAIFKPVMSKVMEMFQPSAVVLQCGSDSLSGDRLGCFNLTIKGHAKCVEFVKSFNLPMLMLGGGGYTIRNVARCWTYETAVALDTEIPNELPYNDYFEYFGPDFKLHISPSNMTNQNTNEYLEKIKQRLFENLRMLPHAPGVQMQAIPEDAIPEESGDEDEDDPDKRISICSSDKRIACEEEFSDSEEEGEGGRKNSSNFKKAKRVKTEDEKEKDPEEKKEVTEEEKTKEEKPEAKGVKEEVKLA
SMILES,pIC50 [3],pIC50 [7],pIC50 [8],pIC50 [9],Activity [1],Activity [2],Activity [4],Activity [5],pIC50 [6],Activity [10]
O=C(/C=C/c1ccc2c(c1)C(=O)N(Cc1ccccc1)C2)NO,6.64,,6.66,6.60,,,,,,
CC(C)(C)c1ccc(CN2Cc3ccc(/C=C/C(=O)NO)cc3C2=O)cc1,6.00,,6.74,6.64,,,,,,
O=C(CCCCCCC(=O)Nc1ccccc1)NO,,,,,inactive,Active,inactive,,,Active

# More lines, main results first:
pIC50 [3],pIC50 [7],pIC50 [8],pIC50 [9],SMILES,Activity [1],Activity [2],Activity [4],Activity [5],pIC50 [6],Activity [10]
6.55,7.46,7.25,7.04,O=C(/C=C/c1ccc2c(c1)C(=O)N(Cc1ccc(-c3cccnc3)cc1)C2)NO,inactive,Active,inactive,Active,6.70,
6.12,6.82,7.01,6.66,O=C(/C=C/c1ccc2c(c1)C(=O)N(Cc1ccc(-c3ccccc3)cc1)C2)NO,,,,,6.52,
4.82,,5.68,5.48,O=C(/C=C/c1ccc2c(c1)C(=O)N(Cc1ccc(-c3ccncc3)cc1)C2)NO,,,,,,
